The values that follow come from US20220362186A1, “Application of p-Hydroxyphenylpropionic Acid to Prepare Medicine for Preventing and Treating Respiratory Tract Infection” (SUN YAT-SEN UNIVERSITY, priority 2020, published 2022).

Assay [1] has as its system lipopolysaccharide-induced mouse acute lung injury model. As to the kind of experiment: Lipopolysaccharide-induced mouse acute lung injury model. Format: in vivo, Balb/c mice. Particulars: for LDH Activity in Lung / MPO Activity in Lung / MPO Content in Lung / Lung Tissue Dry-to-wet Ratio: 24 h after LPS; for Lung Tissue Dry-to-wet Ratio: mean ± SD. How it is done: Experimental method: the mice were acclimatized for 72 hours in an SPF animal room with constant temperature and constant humidity after purchase. The mice were randomly divided into four groups, that is, a blank control group (n=10), a model control group (n=10), a positive control medicine naringin group (n=11) and a p-hydroxyphenylpropionic acid group (n=11). The naringin group (180 mg/kg) and the p-hydroxyphenylpropionic acid group (51.6 mg/kg) were continuously subjected to intragastric administration once a day, for three days respectively; and the blank control group and the model control group were administered intragastrically with equivoluminal normal saline. The mice were anesthetized through intraperitoneal injection of 0.5 ml of pentobarbital sodium (65 mg/kg) three hours after the last intragastric administration. For the mice in the model group, the naringin group and the p-hydroxyphenylpropionic acid group, 50 μl of lipopolysaccharide 055:B5 solution (0.8 mg/ml) was slowly instilled into the nasal cavities of the mice until being completely absorbed, and a mouse acute lung injury model was established. The mice in the blank control group received nasal drops of the equivoluminal normal saline. The mice were killed by a cervical vertebra dislocation method 24 hours after the lipopolysaccharide modeling was performed, and the whole lung tissue of the mice was collected and put into a sterile centrifugal tube and was stored in liquid nitrogen within 30 seconds. After the lung tissue stored in the liquid nitrogen was placed at room temperature for 30 minutes, a wet weight was weighed. A drying vessel was dried at 80° C. for 24 hours and then was taken out and placed at room temperature for weighing. Then, the drying vessel was taken out after 1 hour of constant weight at 80° C. and was placed at room temperature for weighing. After the weight of the drying vessel was constant, the lung tissue was placed in the drying vessel, was dried at 80° C. for 48 hours and taken out, and was placed at room temperature for weighing. Then, the drying vessel was taken out after 1 hour of constant weight at 80° C. and was placed at room temperature for weighing. […] [formula] [formula] 24 hours after the lipopolysaccharide modeling was performed, the mice were killed and about 400 mg of lung tissue was collected. 1 ml of PBS-10% Triton was added into the lung tissue to serve as a lysis solution for homogenization. After the protein concentration was measured by a BCA protein concentration kit, the sample loading quantity was adjusted to 50 μg of total protein and 100 μl of total volume, and the content of myeloperoxidase (MPO), the activity of the MPO and the activity of lactic dehydrogenase (LDH) in the lung tissue sample were measured by kits. The data in the table are presented as mean±standard deviation, and analysis of difference among multiple groups is realized by a one-way analysis of variance Beforroni method and SPSS 22.0 software.

The next assay concerns chronic smoked mice. In words: Chronic lung injury caused by smoking (chronic smoked mice). Format: in vivo, Balb/c mice. Particulars: for Cchord / FEV50/FVC: 8 weeks smoking; for Lymphocyte count of alveolar lavage fluid / Monocyte count of alveolar lavage fluid / Neutrophil count of alveolar lavage fluid: BALF; for IL-1β in lung tissue / IL-6 in lung tissue / IL-18 in lung tissue / LTB4 in lung tissue / TNF-α in lung tissue: lung tissue homogenate, ELISA.

The test system of the next assay is Klebsiella pneumoniae. As to the kind of experiment: Antibacterial experiment in vitro, broth microdilution (CLSI). In kind it is cell-based. Particulars: 20 h, 20-hour cultivation at 37° C. (In general: In broth dilution the organism is exposed to a series of concentrations in liquid medium.)
For another assay, the system named is Staphylococcus aureus. The assay is described as above. Format: cell-based. Conditions: 20-hour cultivation at 37° C.
Where [2] appears, read: 51.6 mg/kg intragastric once a day for three days.
[3] abbreviates: high-dose 60 mg/kg intragastric.
Where [4] appears, read: 180 mg/kg intragastric once a day for three days.

The structures appear in SMILES notation. In brackets after ≈: the same amount, converted by molar mass. Where two headings read alike, the source gives them in different places. Marks after values point to notes of the source that are not given here.

One may read the MIC as the lowest concentration that inhibits growth of the organism. Take `O=C(O)CCc1ccc(O)cc1` [HPPA, p-Hydroxyphenylpropionic acid]: in assay [1] (setting [2]), the “LDH Activity in Lung” value was 271.19 ± 27.70 ## units/gprot. Besides, the “MPO Activity in Lung” value in assay [1] (setting [2]) was 1.756 ± 0.190 ## units/gprot. The “MPO Content in Lung” value in assay [1] (setting [2]) is reported as 324.09 ± 36.33 ## pg/ml. For the same compound, the “Lung Tissue Dry-to-wet Ratio” value in assay [1] (setting [2]) worked out at 4.90 ± 0.52. Moreover, the Cchord came out at 0.041 ± 0.0029 mL/cm H2O with chronic smoked mice (setting [3]) and 0.0448 ± 0.0041 mL/cm H2O in the assay with chronic smoked mice (low-dose 15 mg/kg intragastric). For the same compound, the FEV50/FVC worked out at 0.333 ± 0.040 with chronic smoked mice (setting [3]) and 0.360 ± 0.039 with chronic smoked mice (low-dose 15 mg/kg intragastric). Besides, the “Lymphocyte count of alveolar lavage fluid” value in the assay on chronic smoked mice (setting [3]) is reported as 1.014 ± 0.107# 10^5/mL; in the assay with chronic smoked mice (low-dose 15 mg/kg intragastric) it was 1.317 ± 0.117 10^5/mL. Also, the “Monocyte count of alveolar lavage fluid” value is 3.100 ± 0.554## 10^5/mL with chronic smoked mice (setting [3]) and 3.871 ± 0.544 10^5/mL in the assay on chronic smoked mice (low-dose 15 mg/kg intragastric). Also, the figures for the “Neutrophil count of alveolar lavage fluid” value in the assay with chronic smoked mice (setting [3]) and with chronic smoked mice (low-dose 15 mg/kg intragastric) were 0.743 ± 0.190## 10^5/mL and 1.129 ± 0.287 10^5/mL, respectively. For the same compound, the entries for the “IL-1β in lung tissue” value in the assay with chronic smoked mice (setting [3]) and in the assay on chronic smoked mice (low-dose 15 mg/kg intragastric) were 35.27 ± 6.509 pg/mL and 47.18 ± 6.822 pg/mL, respectively. Further, the “IL-6 in lung tissue” value with chronic smoked mice (setting [3]) amounted to 1027 ± 90.56 pg/mL; in the assay with chronic smoked mice (low-dose 15 mg/kg intragastric), 1483 ± 300.3 pg/mL. The “IL-18 in lung tissue” value in the assay on chronic smoked mice (setting [3]) is 157.4 ± 9.098 pg/mL; in the assay on chronic smoked mice (low-dose 15 mg/kg intragastric) it was 180.1 ± 6.667 pg/mL. Further, the results for the “LTB4 in lung tissue” value in the assay on chronic smoked mice (setting [3]) and in the assay with chronic smoked mice (low-dose 15 mg/kg intragastric) were 7241 ± 1024 pg/mL and 8344 ± 1356#^ pg/mL, respectively. Moreover, the “TNF-α in lung tissue” value in the assay with chronic smoked mice (setting [3]) amounted to 92.45 ± 13.24 pg/mL; in the assay with chronic smoked mice (low-dose 15 mg/kg intragastric), 126.3 ± 10.34 pg/mL. Also, the minimal inhibitory concentration (MIC) in the assay with Klebsiella pneumoniae (strain K11) was found to be 64 µg/mL (≈ 385 µM); against Klebsiella pneumoniae (Klebsiella pneumoniae, strain K1), 128 µg/mL (≈ 770 µM); in the assay on Klebsiella pneumoniae (Klebsiella pneumoniae, strain K2), 128 µg/mL (≈ 770 µM); in the assay with Klebsiella pneumoniae (Klebsiella pneumoniae, strain K3), 128 µg/mL (≈ 770 µM); in the assay with Klebsiella pneumoniae (Klebsiella pneumoniae, strain K4), 128 µg/mL (≈ 770 µM); in the assay with Klebsiella pneumoniae (Klebsiella pneumoniae, strain K5), 128 µg/mL (≈ 770 µM). Also, the MIC in the assay with Klebsiella pneumoniae (Klebsiella pneumoniae, strain K6) was determined as 64 µg/mL (≈ 385 µM); against Klebsiella pneumoniae (Klebsiella pneumoniae, strain K7), 128 µg/mL (≈ 770 µM); against Klebsiella pneumoniae (Klebsiella pneumoniae, strain K8) it was 64 µg/mL (≈ 385 µM); in the assay with Klebsiella pneumoniae (Klebsiella pneumoniae, strain K9) it was 64 µg/mL (≈ 385 µM); against Klebsiella pneumoniae (Klebsiella pneumoniae, strain K10), 64 µg/mL (≈ 385 µM); in the assay with Klebsiella pneumoniae (Klebsiella pneumoniae, strain K12) it was 64 µg/mL (≈ 385 µM). Further, the MIC in the assay with Staphylococcus aureus (Staphylococcus aureus, strain S4, read-out: MIC) was 64 µg/mL (≈ 385 µM); in the assay on Staphylococcus aureus (strain S1), 64 µg/mL (≈ 385 µM); against Staphylococcus aureus (strain S2) it was 64 µg/mL (≈ 385 µM); against Staphylococcus aureus (strain S3) it was 64 µg/mL (≈ 385 µM); with Staphylococcus aureus (strain S5), 64 µg/mL (≈ 385 µM); against Staphylococcus aureus (strain S6) it was 64 µg/mL (≈ 385 µM). The MIC against Staphylococcus aureus (strain S7), against Staphylococcus aureus (strain S8), in the assay with Staphylococcus aureus (strain S9) and in the assay on Staphylococcus aureus (strain S10) was 64 µg/mL (≈ 385 µM) throughout.
For `O=C(Nc1c(Cl)cncc1Cl)c1ccc(OC(F)F)c(OCC2CC2)c1` [Roflumilast, roflumilast, reference compound], in the assay with chronic smoked mice (5 mg/kg intragastric), the Cchord came out at 0.042 ± 0.0054 mL/cm H2O, the FEV50/FVC was determined as 0.367 ± 0.042, the “Lymphocyte count of alveolar lavage fluid” value is recorded as 0.914 ± 0.227## 10^5/mL and the “Monocyte count of alveolar lavage fluid” value is 3.014 ± 0.319## 10^5/mL. Also, in the assay on chronic smoked mice (5 mg/kg intragastric), the “Neutrophil count of alveolar lavage fluid” value is on record as 0.729 ± 0.180## 10^5/mL, the “IL-1β in lung tissue” value came to 34.02 ± 7.098 pg/mL, the “IL-6 in lung tissue” value turned out to be 963.2 ± 188.8 pg/mL and the “IL-18 in lung tissue” value came to 143.4 ± 18.34 pg/mL. Besides, in the assay on chronic smoked mice (5 mg/kg intragastric), the “LTB4 in lung tissue” value was determined as 6809 ± 670.8 pg/mL and the “TNF-α in lung tissue” value was found to be 102.4 ± 17.34 pg/mL.
Regarding `C[C@@H]1O[C@@H](O[C@H]2[C@H](Oc3cc(O)c4c(c3)O[C@H](c3ccc(O)cc3)CC4=O)O[C@H](CO)[C@@H](O)[C@@H]2O)[C@H](O)[C@H](O)[C@H]1O` [Naringin, naringin], in assay [1] (setting [4]), the “LDH Activity in Lung” value is 310.93 ± 27.77 units/gprot, the “MPO Activity in Lung” value is listed as 1.913 ± 0.262 units/gprot, the “MPO Content in Lung” value is 415.85 ± 52.15 pg/mL and the “Lung Tissue Dry-to-wet Ratio” value is reported as 5.15 ± 0.47. Also, in assay [1] (180 mg/kg intragastric, P<0.01 vs model control), the “Effect on lung inflammation, pulmonary edema, neutrophil infiltration and cell necrosis in ALI (in words)” value was “effectively inhibit the progress of lung inflammation in the ALI and alleviate pulmonary edema, local neutrophil infiltration and cell necrosis”.
